Tests used:
Assay in all cases: relative viability (nuclei count vs DMSO), 5 days (fraction); higher = more cells survive
Kobe2602 = compound: C1=CC(=CC=C1NC(=S)NNC2=C(C=C(C=C2[N+](=O)[O-])C(F)(F)F)[N+](=O)[O-])F [Kobe2602]
Summary of the method: (§1)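 Five library-drug doses, separated by factors of √10, were pinned into 1536-well plates holding lung cancer cell lines after an overnight stay at 37 °C. Cells were fixed, permeabilised and Hoechst-stained in one step after 5 days without medium change, then imaged at 4×. Viability compares treated-well with vehicle-well nuclei, counted in MetaXpress, as a median across plates. Passing plates had control CV below 25% and at least one doubling.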

Cabozantinib = compound: COc1cc2nccc(Oc3ccc(NC(=O)C4(C(=O)Nc5ccc(F)cc5)CC4)cc3)c2cc1OC [Cabozantinib]
Summary of the method: as §1

Zosuquidar = compound: O[C@@H](COc1cccc2ncccc12)CN1CCN([C@@H]2c3ccccc3[C@@H]3[C@H](c4ccccc42)C3(F)F)CC1 [Zosuquidar]
Summary of the method: as §1

[1] = compound: COc1cc2nccc(Oc3ccc(NC(=O)C4(C(=O)Nc5ccc(F)cc5)CC4)cc3)c2cc1OC [Cabozantinib] + C[C@@H](Oc1cc(-c2cnn(C3CCNCC3)c2)cnc1N)c1c(Cl)ccc(F)c1Cl [Crizotinib] (partner 1 µM)
Summary of the method: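 The day after seeding in 1536-well plates, lung cancer cell lines were treated by pin tool with a single drug, or with a fixed anchor-drug dose together with five library-drug doses (not always all listed) in √10 steps. After 5 days, a combined fix-and-stain solution (final 0.05% Triton X-100, 1% formaldehyde, 1 ug/ml Hoechst) was added. Nuclei counted on 4× images gave relative viability as treated counts over vehicle counts, reported as the median of duplicate plates.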

Cell Line | relative viability (Kobe2602; 0.2 µM) | relative viability (Kobe2602; 0.6325 µM) | relative viability (Kobe2602; 2 µM) | relative viability (Kobe2602; 6.325 µM) | relative viability (Kobe2602; 20 µM) | relative viability (Cabozantinib; 0.02 µM) | relative viability (Cabozantinib; 0.06325 µM) | relative viability (Cabozantinib; 0.2 µM) | relative viability (Cabozantinib; 0.6325 µM) | relative viability (Cabozantinib; 2 µM) | relative viability (Zosuquidar; 0.01 µM) | relative viability (Zosuquidar; 0.03162 µM) | relative viability (Zosuquidar; 0.1 µM) | relative viability (Zosuquidar; 0.3162 µM) | relative viability (Zosuquidar; 1 µM) | relative viability ([1]; first compound 0.02 µM) | relative viability ([1]; first compound 0.06325 µM) | relative viability ([1]; first compound 0.2 µM) | relative viability ([1]; first compound 0.6325 µM) | relative viability ([1]; first compound 2 µM)
NCI-H838 | 0.932 | 1.03 | 0.937 | 0.955 | 0.96 | 0.93 | 1 | 0.966 | 0.891 | 0.854 | 0.972 | 0.836 | 0.9 | 1.04 | 1.01 | 1.03 | 0.925 | 0.834 | 0.787 | 0.799
NCI-H1299 | 0.977 | 1.06 | 1.02 | 1.04 | 0.994 | 1.03 | 1.08 | 1.03 | 1.05 | 1.08 | 1.02 | 0.989 | 1.04 | 1.01 | 1 | 0.977 | 0.998 | 0.648 | 0.973 | 0.993
NCI-H1355 | 0.914 | 1.01 | 0.911 | 0.965 | 0.959 | 0.954 | 1.11 | 0.977 | 0.96 | 0.961 | 0.99 | 0.967 | 0.843 | 1.06 | 0.973 | 1.11 | 1.16 | 1.09 | 1.05 | 1.15
NCI-H1437 | 0.958 | 0.978 | 1 | 0.983 | 0.96 | 1.05 | 1.08 | 0.946 | 0.998 | 0.975 | 0.976 | 0.979 | 0.91 | 1.09 | 0.942 | 1.02 | 1 | 0.955 | 0.976 | 0.792
NCI-H1563 | 0.899 | 1 | 0.96 | 0.971 | 0.981 | 0.99 | 0.977 | 1.04 | 0.915 | 1.01 | 0.936 | 0.929 | 0.974 | 1.13 | 0.865 | 0.948 | 1.03 | 0.904 | 0.77 | 0.802
NCI-H1650 | 0.891 | 1.02 | 0.99 | 0.913 | 0.846 | 0.925 | 1.13 | 0.805 | 1.02 | 0.89 | 0.885 | 0.929 | 0.876 | 1.06 | 0.912 | 1.02 | 1.23 | 0.911 | 1.04 | 0.911
NCI-H1651 | 0.982 | 1.01 | 0.981 | 0.967 | 1.01 | 0.95 | 1.07 | 0.92 | 0.981 | 0.968 | 0.985 | 1.02 | 0.911 | 1.02 | 0.983 | 0.821 | 0.866 | 0.885 | 0.846 | 0.842
NCI-H1666 | 1.06 | 1.01 | 0.963 | 1.03 | 1 | 1.01 | 1.08 | 1.02 | 1.03 | 1.06 | 0.997 | 1.08 | 0.962 | 1.08 | 0.945 | 0.965 | 1 | 1.05 | 1.1 | 1.08
NCI-H1703 | 0.831 | 1.08 | 0.83 | 0.898 | 0.727 | 0.57 | 0.662 | 0.325 | 0.262 | 0.233 | 1.07 | 1.14 | 0.993 | 1.12 | 1.01 | – | 0.296 | 0.172 | 0.249 | 0.175
NCI-H1734 | 1.05 | 1.05 | 0.973 | 0.987 | 1.1 | 0.92 | 1.01 | 1.11 | 1.02 | 0.938 | 1 | 1 | 0.928 | 1.08 | 0.938 | 0.809 | 0.761 | 0.687 | 0.73 | 0.635
NCI-H1755 | 0.962 | 0.971 | 0.993 | 0.985 | 0.994 | 0.994 | 1.04 | 0.977 | 0.923 | 0.857 | 0.995 | 1.01 | 0.94 | 1.05 | 1.01 | 0.972 | 0.964 | 0.942 | 0.797 | 0.781
NCI-H1792 | 0.99 | 1.02 | 0.848 | 0.978 | 1.07 | – | 1.21 | 0.915 | 0.894 | 0.898 | 0.833 | 0.94 | 0.729 | 0.954 | 0.834 | 0.841 | 1.1 | 0.999 | 0.962 | 1.03
NCI-H1915 | 0.998 | 1.08 | 0.987 | 0.985 | 1 | 0.994 | 1.03 | 1.02 | 0.996 | 0.994 | 0.986 | 1.04 | 0.926 | 1.04 | 1.01 | 0.923 | 0.904 | 0.888 | 0.896 | 0.996

Source: the supplement of paper PMC10307832
